# From patent US10752612B2, “PLK4 inhibitors” (LUDWIG INSTITUTE FOR CANCER RESEARCH LTD, priority 2015, dated 2020)
# What was measured:
# TNK1 = target: T1, TNK1 (Homo sapiens, UniProt Q13470); experiment: Radiometric kinase assay, off-target TNK1; type: biochemical; details: off-target from DiscoveRx kinome profiling
# T1 construct: Reaction Biology (Malvern, Pa.), contract assay
# T1 sequence (Q13470 1-666): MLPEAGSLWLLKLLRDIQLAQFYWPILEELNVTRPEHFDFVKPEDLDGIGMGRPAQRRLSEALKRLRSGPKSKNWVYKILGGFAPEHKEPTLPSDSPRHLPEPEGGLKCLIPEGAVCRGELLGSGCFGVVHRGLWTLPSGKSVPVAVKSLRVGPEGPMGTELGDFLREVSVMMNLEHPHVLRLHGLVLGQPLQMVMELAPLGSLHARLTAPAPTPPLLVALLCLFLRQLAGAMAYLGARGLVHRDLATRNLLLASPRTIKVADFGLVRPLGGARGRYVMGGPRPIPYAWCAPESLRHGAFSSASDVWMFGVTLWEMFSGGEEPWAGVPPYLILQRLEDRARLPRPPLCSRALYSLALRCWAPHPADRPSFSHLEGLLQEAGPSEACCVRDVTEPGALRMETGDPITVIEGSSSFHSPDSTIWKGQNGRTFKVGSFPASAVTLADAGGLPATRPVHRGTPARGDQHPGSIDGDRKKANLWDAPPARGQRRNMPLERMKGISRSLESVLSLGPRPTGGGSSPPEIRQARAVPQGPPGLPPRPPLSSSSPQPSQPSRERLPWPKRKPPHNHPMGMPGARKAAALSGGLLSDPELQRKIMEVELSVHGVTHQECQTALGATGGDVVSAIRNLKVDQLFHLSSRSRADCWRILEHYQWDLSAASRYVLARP
# Experimental: (§1) Aurora B and other radiometric kinase assays were performed by Reaction Biology (Malvern, Pa.). Kinome profiling of centrinone and centrinone-B was performed by DiscoveRx (San Diego, Calif.).
# JAK2 = target: T2, JAK2 (Homo sapiens, UniProt O60674); experiment: Radiometric kinase assay, off-target JAK2; type: biochemical; details: off-target from DiscoveRx kinome profiling
# T2 construct: Reaction Biology (Malvern, Pa.), contract assay
# Experimental: as §1
# Plk4 = Plk4 intensity at centrosomes, HeLa; type: cell-based, human; details: 125 nM, 8 hours
# Description: FIGS. 13A-13D. Centriole number set points arise from a dynamic equilibrium between centriole overduplication and removal of cells with extra centrioles. […] Yellow arrowheads mark centrin foci. Each frame was acquired at NEBD when the centrosomes are optimally distributed for counting. Times in the bottom left of each panel are in minutes relative to NEBD in the mother cell. Scale bar, 10 μm. (FIG. 13B) Histogram of mitotic outcomes for HeLa cells with <2, 2 or >2 centrosomes. The fates of daughter cells arising from 2-centrosome bipolar mitosis, multi-centrosome bipolar mitosis, and multi-centrosome multipolar mitosis are shown below. Data are mean+/−SD (N=2). […] Intervals are based on the time of NEBD in the mother cells. The diagonal line represents the 2:1 ratio expected under normal conditions; points above or below this line correspond to over- or under-duplication, respectively. […] Boxed regions are magnified 2.3× in panels below. Scale bar, […]. The Plk4 intensity at centrosomes was quantified and normalized to the intensity in untreated cells. Data are mean+/−SD (N=3).
# RPE1 Plk4 G95L cells = experiment: Centrosome number and passaging assay, RPE1 Plk4 G95L knock-in; type: cell-based, human; details: RPE1, both PLK4 alleles G95L
# Description: For generation of RPE1 cells with a Plk4(G95L) knock-in, we targeted the intronic region between exons 4 and 5 of the Plk4 locus with a gRNA sequence ([…], SEQ ID NO: 1) cloned into pX458 (a gift from Feng Zhang; Addgene plasmid #48138; 44). A repair template was cloned to introduce the G95L point mutation, as well as a neomycin resistance cassette within the intronic region (see FIG. 15). RPE1 cells were transfected with the Cas9/gRNA plasmid, then transduced with adeno-associated virus coding for the repair template using previously described methods (45). Cells were selected in 96-well plates for 2 weeks using 0.5 mg/ml Geneticin (Life Technologies). Positive clones homozygous for the G95L knock-in were identified by PCR and sequencing of genomic DNA.
# Passaging assays. Cells were seeded into 10 cm tissue culture plates at 150,000 (HeLa, NIH/3T3 and RPE1) or 200,000 cells/plate (primary fibroblasts). Compounds were added at the indicated concentrations. At 4-day intervals, cells were harvested, counted using a TC10 cell counter, and re-seeded into new plates at the densities above. Results are from 2 independent experiments.
# NIH/3T3 cells = experiment: Analysis of mitosis, NIH/3T3 centrin-GFP H2B-RFP; type: cell-based, mouse; details: centrosome-less NIH/3T3 cells
# Experimental: Analysis of mitosis and daughter cell fate. […] Cells were seeded into 96-well cycloolefin plates at 5000 cells/well, 8-10 hours before imaging. Movies were acquired on the CV1000 with a 40×0.95 NA U-PlanApo objective. The imaging chamber was maintained at 37° C. and 5% CO2. Image acquisition and data analysis were performed using CellVoyager software. 20 fields/well were imaged. For HeLa and NIH/3T3 cells, 5×2 μm z-sections in the GFP (25% power, 125 ms, 30% gain) and RFP (25% power, 100 ms, 30% gain) channels were captured in each field, at 5-minute intervals for 24 hours. For RPE1 cells, 5×2 μm z-sections in the GFP (20% power, 100 ms, 30% gain) and RFP (25% power, 100 ms, 30% gain) channels were captured in each field, at 5-minute intervals for 8 hours. To track RPE1 daughter cell fate, imaging was then switched to 3×4 μm z-sections in the RFP channel only, at 10-minute intervals for 48 hours. Mitosis was measured from nuclear envelope breakdown to anaphase onset (or arrest). Results represent combined measurements of 100 mother cells per condition from 2-4 independent experiments.
# centrosomes in cells = experiment: Cellular centrosome depletion (cell line not stated); type: cell-based; details: cellular activity, FIG. 1A
# Experimental: Centriole depletion assay for compound screening. 1,500 NIH/3T3 cells or 3,500 HCT116 cells were seeded into 96-well SCREENSTAR microplates (Greiner) and treated with inhibitors in dose response, added from DMSO stocks. After 3 days, cells were fixed directly in the wells with 100% methanol (−20° C., 10 minutes). The fixed cells were washed with PBS and stained with primary antibodies against γ-tubulin and, for a subset of compounds, Cep192. Cells were then stained with Alexa-488 donkey anti-mouse and Alexa-647 goat anti-rabbit secondary antibodies. Cells were imaged using either a Model 500 LumaScope (Etaluma) or an EVOS FL (Advanced Microscopy Group/Life Technologies), and centriole depletion was determined by scoring the percentage of cells without visible γ-tubulin/Cep192 foci.
# Aurora B = target: T3, Aurora B (Homo sapiens, UniProt Q96GD4); experiment: Aurora B radiometric kinase assay (Reaction Biology); type: biochemical
# T3 construct: Reaction Biology (Malvern, Pa.), contract assay
# Experimental: Aurora B and other radiometric kinase assays were performed by Reaction Biology (Malvern, Pa.).
# T2 sequence (O60674 whole entry): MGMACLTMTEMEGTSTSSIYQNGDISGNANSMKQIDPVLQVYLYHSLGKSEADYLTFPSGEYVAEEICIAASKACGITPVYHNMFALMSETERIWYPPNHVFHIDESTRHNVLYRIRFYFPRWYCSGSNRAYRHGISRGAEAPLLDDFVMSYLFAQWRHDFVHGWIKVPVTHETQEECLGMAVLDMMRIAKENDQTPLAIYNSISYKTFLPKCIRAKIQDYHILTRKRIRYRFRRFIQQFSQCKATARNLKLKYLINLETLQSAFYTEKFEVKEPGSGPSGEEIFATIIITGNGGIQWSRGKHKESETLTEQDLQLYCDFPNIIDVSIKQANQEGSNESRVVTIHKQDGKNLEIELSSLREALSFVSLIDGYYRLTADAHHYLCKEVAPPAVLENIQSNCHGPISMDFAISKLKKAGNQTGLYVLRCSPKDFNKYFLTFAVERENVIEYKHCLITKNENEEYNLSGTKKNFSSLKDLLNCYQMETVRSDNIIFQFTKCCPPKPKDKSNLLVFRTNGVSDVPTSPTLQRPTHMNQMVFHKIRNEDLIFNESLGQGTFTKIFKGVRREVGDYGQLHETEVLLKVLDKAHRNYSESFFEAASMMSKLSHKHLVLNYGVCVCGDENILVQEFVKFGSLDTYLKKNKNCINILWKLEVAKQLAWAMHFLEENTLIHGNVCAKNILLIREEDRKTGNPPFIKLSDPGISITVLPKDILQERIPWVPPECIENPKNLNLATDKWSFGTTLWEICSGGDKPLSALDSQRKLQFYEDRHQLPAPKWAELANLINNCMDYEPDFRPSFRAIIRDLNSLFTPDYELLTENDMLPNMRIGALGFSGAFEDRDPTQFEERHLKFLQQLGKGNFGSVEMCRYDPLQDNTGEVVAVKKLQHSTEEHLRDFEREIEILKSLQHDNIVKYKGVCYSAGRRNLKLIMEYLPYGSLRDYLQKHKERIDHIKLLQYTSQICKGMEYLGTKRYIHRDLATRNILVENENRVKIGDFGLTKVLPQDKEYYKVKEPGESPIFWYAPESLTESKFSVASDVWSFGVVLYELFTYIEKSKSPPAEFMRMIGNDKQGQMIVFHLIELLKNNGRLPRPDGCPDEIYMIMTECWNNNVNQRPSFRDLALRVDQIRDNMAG
# T3 sequence (Q96GD4 whole entry): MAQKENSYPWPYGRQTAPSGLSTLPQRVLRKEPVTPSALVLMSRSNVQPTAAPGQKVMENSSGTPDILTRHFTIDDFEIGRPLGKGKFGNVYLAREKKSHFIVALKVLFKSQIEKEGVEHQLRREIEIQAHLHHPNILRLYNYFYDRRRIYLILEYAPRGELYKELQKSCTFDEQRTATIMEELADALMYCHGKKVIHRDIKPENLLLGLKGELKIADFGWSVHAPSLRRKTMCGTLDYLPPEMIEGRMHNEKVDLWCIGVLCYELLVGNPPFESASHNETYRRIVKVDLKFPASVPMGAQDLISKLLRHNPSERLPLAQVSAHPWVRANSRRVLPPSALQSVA
structure (smiles),measurement,setting,value
"COc1c(Nc2cc(C)[nH]n2)nc(Sc2ccc(S(=O)(=O)Cc3cccc([N+](=O)[O-])c3F)cc2F)nc1N1CCOCC1 [Centrinone, 2-((2-fluoro-4-((2-fluoro-3-nitrobenzyl)sulfonyl)phenyl)thio)-5-methoxy-N-(5-methyl-1H-pyrazol-3-yl)-6-morpholinopyrimidin-4-amine]",Ki,TNK1,1.38 nM
same,Ki,JAK2,> 150 nM
same,Plk4 level at the centrosome,Plk4,double
same,centrosome loss and proliferation,RPE1 Plk4 G95L cells,did not lead to centrosome loss or proliferation arrest
same,increase in mitotic duration,NIH/3T3 cells,~20 min
same,centrosome depletion at,centrosomes in cells,100 nM
same,Ki,Aurora B,437 nM
